Literature values, collected in patent US20040132055A1, “Recombinant chalcomycin polyketide synthase and modifying genes” (priority 2002, published 2004).

Details: spectrum, in words

## COC1CC(C)OC(OC2C(C)/C=C/C(=O)OC(C)C(COC3OC(C)C(O)C(OC)C3OC)C3OC3/C=C/C(=O)C(C)(O)CC2C)C1O (stereo not shown) [Chalcomycin, chalcomycin]
  antimicrobial activity: broad spectrum of antimicrobial activity
